Test results as given in US7778782B1, “Peroxisome proliferation activated receptor alpha (PPARα) signatures” (priority 2002, dated 2010).
Marks after values point to notes of the source that are not given here.

Test system: PPARα response signature
Assay: Signature Projection Score (SPS) of liver gene expression against the PPARα response signature
Type: in vivo, male Sprague-Dawley rats
Method: Compound dosing was based on the acute dose LD50s recorded in published reference or literature sources. Duplicate rats were dosed at each of 3 doses: at LD50, one-half and one-fourth of LD50. The MTD (maximum tolerated dose) was then selected as the dose at which the animals […] 5-10% body weight during the 5-day range finding study. […] In addition, the clinical observations must show no or mild clinical signs during the whole of the range-finding study. At the next highest dose, signs and symptoms of adverse effects and exceeding those of the MTD should be seen to occur. Should these criteria not be met, the range-finding study is repeated using a modified dose range.
After determination of the MTD and FED for a compound, each compound was dissolved in a vehicle for administration on day 1 of the study (additional daily doses were stored as frozen aliquots from this initial formulation). Each compound was administered to three individual male Sprague-Dawley rats for each of the two doses (MTD and FED) for one of four different times (0.25 day, 1 day, 3 days, and 5 or 7 days), yielding a total of up to 24 animals per compound study. Vehicle choice was based on solubility of the compound, effect of food on adsorption, and the vehicles used in the literature reports examined during the FED selection investigations, described above. Generally, the route and vehicle in which the FED was defined are used. When there was a choice of routes and vehicles, oral routes were chosen over injection routes. Many compounds, especially oncolytics, are only administerable intravenously. In such cases, the compound was administered as an intravenous formulation into the tail vein. Orally administered compounds were given dissolved in either water, 1% carboxymethycellulose (CMC) or corn oil. Intravenously and intraperitoneally administered compounds were given in 0.9% saline. Subcutaneously administered compounds were given in corn oil. Animal body weights were determined at 1 day and, where appropriate, at 4 days, before necropsy, and clinical observations were made on a daily basis. Control animals were dosed with vehicle only. Three male animals were used for each dose and time combination used for the compound treatment.
Tissue harvest and handling: After the allocated treatment time, the tissues from the animals were harvested. […] All the tissues collected were divided to provide samples for histopathological analyses, and the remainder of each tissue was then snap-frozen. […] The parameters were measured using a Hitachi-911 clinical chemistry analysis instrument according to the manufacturer's instructions. The following blood constituents were measured: Blood Urea Nitrogen (BUN), Creatinine (CRE), Glucose (GLU), Alanine Transaminase (ALT), Aspartate Aminotransferase (AST), Alkaline Phosphatase (ALP), Total Bilirubin (TBI), Sodium (SOD), Potassium (POT), Chloride (CHL), Phosphorus (PHO), Total Protein (TPR), Albumin (ALB), Cholesterol (CHO), Creatine Phosphokinase (CPK), Lactate Dehydrogenase (LDH), Carbon Dioxide (CO2), Uric Acid (UA), and Lipase. […] The parameters were measured using a Baker 9000 blood cell analysis instrument according to the manufactures instructions. The following blood constituents were measured: Leukocyte count (WBC), Differential Leukocyte counts, Erythrocyte count (RBC), Hemoglobin concentration (HGB), Hematocrit (HCT), Mean Corpuscular Volume (MCV), Mean Corpuscular Hemoglobin (MCH), Mean Corpuscular Hemoglobin Concentration (MCC), Thrombocyte Count (PLC). Histopathology: Histopathological analyses of hematoxylin and eosin-stained tissue sections were performed and peer-reviewed by board-certified (Diplomate, American College of Veterinary Pathologists) veterinary pathologists.

[1] = rat liver expression data in DrugMatrix database compared with PPARα response signature, normalised so highest training treatment = 100, *= p < 0.01, **= p < 0.001
[2] = rat liver gene expression, in words

Structure (SMILES): C#C[C@]1(OC(C)=O)CC[C@H]2[C@@H]3CCC4=CC(=O)CC[C@@H]4[C@H]3CC[C@@]21C [NORETHINDRONE ACETATE]
- SPS (Sequence Projection Score) [1]: 5

Structure (SMILES): O=C(O)CCCc1ccc(N(CCCl)CCCl)cc1 [CHLORAMBUCIL]
- SPS (Signature Projection Score) [1]: 8

Structure (SMILES): CC(=O)N1CCN(c2ccc(OCC3COC(Cn4ccnc4)(c4ccc(Cl)cc4Cl)O3)cc2)CC1 (centres unmarked) [KETOCONAZOLE]
- SPS (Sequence Projection Score) [1]: 6

Structure (SMILES): Cc1oncc1C(=O)Nc1ccc(C(F)(F)F)cc1 [LEFLUNOMIDE]
- SPS (Sequence Projection Score) [1]: 5

Structure (SMILES): Cc1ccc(C)c(OCCCC(C)(C)C(=O)O)c1 [GEMFIBROZIL, 5-(2,5-dimethylphenoxy)-2,2-dimethylpentanoic acid]
- SPS (Sequence Projection Score) [1]: 65*

Structure (SMILES): COCc1c(C(C)C)nc(C(C)C)c(/C=C/[C@@H](O)C[C@@H](O)CC(=O)O)c1-c1ccc(F)cc1 [CERIVASTATIN]
- SPS (Sequence Projection Score) [1]: 15

Structure (SMILES): CN(C)C=O [N,N-DIMETHYLFORMAMIDE]
- SPS (Sequence Projection Score) [1]: 5

Structure (SMILES): CC(=O)O[C@]1(C(C)=O)CC[C@H]2[C@@H]3C=C(Cl)C4=CC(=O)[C@@H]5C[C@@H]5[C@]4(C)[C@H]3CC[C@@]21C [CYPROTERONE ACETATE]
- SPS (Sequence Projection Score) [1]: 5

Structure (SMILES): c1ccc2c(c1)Nc1ccccc1S2 [PHENOTHIAZINE]
- SPS (Sequence Projection Score) [1]: 23*

Structure (SMILES): C[C@@H]1C[C@H]2[C@@H]3CCC4=CC(=O)C=C[C@]4(C)[C@@]3(F)[C@@H](O)C[C@]2(C)[C@@]1(O)C(=O)CO [DEXAMETHASONE]
- SPS (Sequence Projection Score) [1]: 9

Structure (SMILES): Cn1cnc([N+](=O)[O-])c1Sc1ncnc2nc[nH]c12 [AZATHIOPRINE]
- SPS (Sequence Projection Score) [1]: 7

Structure (SMILES): C[C@]12CC[C@@H]3c4ccc(O)cc4CC[C@H]3[C@@H]1CC[C@@H]2O [BETA-ESTRADIOL]
- SPS (Sequence Projection Score) [1]: 11

Structure (SMILES): CC#C[C@]1(O)CC[C@H]2[C@@H]3CCC4=CC(=O)CCC4=C3[C@@H](c3ccc(N(C)C)cc3)C[C@@]21C [MIFEPRISTONE]
- SPS (Sequence Projection Score) [1]: 7

Structure (SMILES): O=P1(NCCCl)OCCCN1CCCl (centres unmarked) [IFOSFAMIDE]
- SPS (Sequence Projection Score) [1]: 9

Structure (SMILES): CCCCC(CC)COC(=O)c1ccccc1C(=O)OCC(CC)CCCC (centres unmarked) [BIS-2-ETHYLHEXYL PHTHALATE]
- SPS (Sequence Projection Score) [1]: 68**
- similarity to the PPARα response signature [2]: significantly similar to the signature

Structure (SMILES): CCOC(=O)C(C)(C)Oc1ccc(Cl)cc1 [CLOFIBRATE, 2-(p-chlorophenoxy)-2-methylpropionic acid ethyl ester]
- SPS (Sequence Projection Score) [1]: 99**

Structure (SMILES): Oc1c(Cl)cc(Cl)cc1Sc1cc(Cl)cc(Cl)c1O [BITHIONOL]
- SPS (Sequence Projection Score) [1]: 20

Structure (SMILES): C[C@]12CCC(=O)C=C1CC[C@@H]1[C@@H]2CC[C@@]2(C)[C@H]1CC[C@]2(C)O [17-METHYLTESTOSTERONE]
- SPS (Sequence Projection Score) [1]: 5

Structure (SMILES): CC(C)c1c(C(=O)Nc2ccccc2)c(-c2ccccc2)c(-c2ccc(F)cc2)n1CC[C@@H](O)C[C@@H](O)CC(=O)O [ATORVASTATIN]
- SPS (Sequence Projection Score) [1]: 22*
- similarity to the PPARα response signature [2]: significantly similar to the signature

Structure (SMILES): CC1=C(CC(=O)O)c2cc(F)ccc2/C1=C\c1ccc([S+](C)[O-])cc1 (centres unmarked)
- SPS (Sequence Projection Score) [1]: 4

Structure (SMILES): N.N.[Cl][Pt][Cl] [CISPLATIN]
- SPS (Sequence Projection Score) [1]: 9

Structure (SMILES): CC(C)n1c(/C=C/C(O)CC(O)CC(=O)O)c(-c2ccc(F)cc2)c2ccccc21 (centres unmarked) [FLUVASTATIN]
- SPS (Signature Projection Score) (rat, in vivo): 35*

Structure (SMILES): CC[C@H](C)C(=O)O[C@H]1C[C@@H](C)C=C2C=C[C@H](C)[C@H](CC[C@@H]3C[C@@H](O)CC(=O)O3)[C@H]21 [LOVASTATIN]
- SPS (Signature Projection Score) (rat, in vivo): 45*
- similarity to the PPARα response signature (rat, in vivo): significantly similar to the signature

Structure (SMILES): CC(=O)[C@H]1CC[C@H]2[C@@H]3CCC4=CC(=O)CC[C@]4(C)[C@H]3CC[C@]12C [PROGESTERONE]
- SPS (Sequence Projection Score) [1]: 5

Structure (SMILES): O=C(c1ccc(OCCN2CCCCC2)cc1)c1c(-c2ccc(O)cc2)sc2cc(O)ccc12 [RALOXIFENE]
- SPS (Sequence Projection Score) [1]: 44*

Structure (SMILES): C#C[C@]1(O)CC[C@H]2[C@@H]3CCc4cc(O)ccc4[C@H]3CC[C@@]21C [ETHINYLESTRADIOL]
- SPS (Sequence Projection Score) [1]: 19

Structure (SMILES): OC(Cn1cncn1)(Cn1cncn1)c1ccc(F)cc1F [FLUCONAZOLE]
- SPS (Sequence Projection Score) [1]: 4

Structure (SMILES): Clc1ccccc1C(c1ccccc1)(c1ccccc1)n1ccnc1 [CLOTRIMAZOLE]
- SPS (Sequence Projection Score) [1]: 4

Structure (SMILES): CC(C)(Oc1ccc(CCNC(=O)c2ccc(Cl)cc2)cc1)C(=O)O [BEZAFIBRATE, 2-(4-(2-((4-chlorobenzoyl)amino)ethyl)phenoxy)-2-methylpropanoic acid]
- SPS (Signature Projection Score) [1]: 102**
